Reference: US6849632B2, “Heteroaryl alkyl piperazine derivatives” (CV Therapeutics, Inc., priority 2000, dated 2005)
Several values for one entry are separate records, joined by “and”; a condition that tells them apart may be missing. Identical values can stand only once.

These compounds were tested on mitochondrial fatty acid oxidation using palmitoyl CoA as substrate (assay: Palmitoyl CoA oxidation in isolated rat heart mitochondria). Conditions: 50 μm compound, 15 min at 30° C.
Format: biochemical
Procedure: Rat heart mitochondria were isolated by the method of Nedergard and Cannon (Methods in Enzymol. 55, 3, 1979). Palmitoyl CoA oxidation—The Palmityl CoA oxidation was carried out in a total volume of 100 micro liters containing the following agents: 110 mM KCl, 33 mM Tris buffer at pH 8, 2 mM KPi, 2 mM MgCl2, 0.1 mM EDTA, 14.7 microM defatted BSA, 0.5 mM malic acid, 13 mM carnitine, 1 mM ADP, 52 micrograms of mitochondrial protein, and 16 microM 1-C14 palmitoyl CoA (Sp. Activity 60 mCi/mmole; 20 microCi/ml, using 5 microliters per assay). The compounds of this invention were added in a DMSO solution at the following concentrations: 100 microM, and 50 microM. In each assay, a DMSO control was used. After 15 min at 30° C., the enzymatic reaction was centrifuged (20,000 g for 1 min), and 70 microliters of the supernatant was added to an activated reverse phase silicic acid column (approximately 0.5 ml of silicic acid). The column was eluted with 2 ml of water, and 0.5 ml of the eluent was used for scintillation counting to determine the amount of C^14 trapped as C^14 bicarbonate ion.

Row | Compound | Inhibition of mitochondrial fatty acid oxidation using palmitoyl CoA as substrate - % of Control, 50 μm (%)
1 | Cc1cccc(C)c1NC(=O)CN1CCN(CC(O)COc2ccc3oc(-c4cccc(C(F)(F)F)c4)nc3c2)CC1 (stereo not shown) [Compound 7, N-(2,6-dimethyl-phenyl)-2-(4-{2-hydroxy-3-[2-(3-trifluoromethylphenyl)benzoxazol-5-yloxy]-propyl}-piperazin-1-yl)acetamide] | 77%
2 | Cc1cccc(C)c1NC(=O)CN1CCN(CC(O)COc2ccc3oc(-c4ccccc4)nc3c2)CC1 (stereo not shown) [Compound 60, N-(2,6-dimethylphenyl)-2-{4-[2-hydroxy-3-(2-phenyl-benzoxazol-5-yloxy)-propyl)-piperazin-1-yl}acetamide] | 61%
3 | Cc1cccc(C)c1NC(=O)CN1CCN(CC(O)COc2cccc3nc(-c4ccccc4)sc23)CC1 (stereo not shown) [Compound 62] | 62%
4 | Cc1cccc(C)c1NC(=O)CN1CCN(CC(O)COc2ccc3oc(-c4ccc(C(F)(F)F)cc4)nc3c2)CC1 (stereo not shown) [Compound 68, N-(2,6-dimethylphenyl)-2-(4-{2-hydroxy-3-[2-(4-trifluoromethyl-phenyl)benzoxazol-5-yloxy]-propyl}-piperazin-1-yl)acetamide] | 68%

Same assay, conditions: 100 μm compound, 15 min at 30° C.

Row | Compound | Inhibition of mitochondrial fatty acid oxidation using palmitoyl CoA as substrate - % of Control, 100 μm (%)
5 | Cc1cccc(C)c1NC(=O)CN1CCN(CC(O)CNc2nc3ccccc3s2)CC1 (stereo not shown) [Compound 39, 2-{4-[3-(benzothiazol-2-ylamino)-2-hydroxypropyl]piperazinyl}-N-(2,6-dimethylphenyl)acetamide] | 27%
6 | Cc1nc2ccc(OCC(O)CN3CCN(CC(=O)Nc4c(C)cccc4C)CC3)cc2s1 (stereo not shown) [Compound 49, N-(2,6-dimethylphenyl)-2-{4-[2-hydroxy-3-(2-methyl-benzothiazol-6-yloxy)-propyl]-piperazin-1-yl}aceamide] | 3%
7 | Cc1nc2cc(OCC(O)CN3CCN(CC(=O)Nc4ccc(O)cc4)CC3)ccc2s1 (stereo not shown) [Compound 54, 2-{4-[2-hydroxy-3-(2-methyl-benzothiazol-5-yloxy)-propyl]-piperazin-1-yl}-N-(4-hydroxy-phenyl)acetamide] | 81%
8 | Cc1nc2cc(OCC(O)CN3CCN(CC(=O)Nc4c(C)cccc4C)C(=O)C3)ccc2s1 (stereo not shown) [Compound 64, N-(2,6-dimethylphenyl)-2-{4-[2-hydroxy-3-(2-methyl-benzothiazol-5-yloxy)-propyl]-2-oxo-piperazin-1-yl}acetamide] | 41%
9 | Cc1cccc(C)c1NC(=O)CN1CCN(CC(O)COc2cccnc2)CC1 (stereo not shown) [Compound 72, N-(2,6-dimethylphenyl)-2-{4-[2-hydroxy-3-(pyridin-3-yloxy)-propyl]-piperazin-1-yl}acetamide] | 8%
10 | Cc1cccc(C)c1NC(=O)CN1CCN(CC(O)CNc2nc3ccccc3o2)CC1 (stereo not shown) [Compound 82, 2-{4-[3-(benzoxazol-2-ylamino)-2-hydroxypropyl]piperazinyl}-N-(2,6-dimethylphenyl)acetamide] | 22%

Same assay, conditions: Table 1, read-out: IC50 (μm), inhibition of mitochondrial fatty acid oxidation using palmitoyl CoA as substrate

Row | IC50 | Compound
11 | ~8 µM | Cc1nc2cc(OCC(O)CN3CCN(CC(=O)Nc4ccc(O)cc4)CC3)ccc2s1 (stereo not shown) [Compound 54, 2-{4-[2-hydroxy-3-(2-methyl-benzothiazol-5-yloxy)-propyl]-piperazin-1-yl}-N-(4-hydroxy-phenyl)acetamide]

Same assay, conditions: Table IA, read-out: Effect on Palmitoyl CoA Oxidation (IC50)

Row | IC50 | Compound
12 | 12 µM and 20 µM | 2-(4-{(2S)-3-[2-(4-chlorophenyl)benzoxazol-5-yloxy]-2-hydroxypropyl}piperazinyl)-N-[2-(hydroxymethyl)-6-methylphenyl]acetamide
13 | 12.9 µM | 2-(4-{(2S)-3-[2-(4-chlorophenyl)benzoxazol-5-yloxy]-2-hydroxypropyl}piperazinyl)-N-[4-(trifluoromethyl)phenyl]acetamide
14 | 19 µM | 2-((3S)-4-{(2S)-3-[2-(2-chlorophenyl)benzoxazol-5-yloxy]-2-hydroxy-propyl}-3-methylpiperazinyl)-N-(2,6-dimethylphenyl)acetamide
15 | 16 µM | 2-((3S)-4-{(2S)-3-[2-(3-fluorophenyl)benzoxazol-5-yloxy]-2-hydroxy-propyl}-3-methylpiperazinyl)-N-(2,6-dimethylphenyl)acetamide
16 | 0.45 µM | 2-{4-[(2R)-2-hydroxy-3-(2-methylbenzothiazol-5-yloxy)propyl]-3,3-dimethylpiperazinyl}-N-(2,6-dimethylphenyl)acetamide
17 | 0.39 µM | 2-{4-[(2S)-2-hydroxy-3-(2-methylbenzothiazol-5-yloxy)propyl]piperazinyl}-N-(3-phenoxyphenyl)acetamide
18 | 1.7 µM | 2-{4-[(2S)-2-hydroxy-3-(2-methylbenzothiazol-5-yloxy)propyl]piperazinyl}-N-(4-methylphenyl)acetamide
19 | 0.46 µM | 2-{4-[(2S)-2-hydroxy-3-(2-methylbenzothiazol-5-yloxy)propyl]piperazinyl}-N-(4-phenylphenyl)acetamide
20 | 2 µM | 2-{4-[(2S)-2-hydroxy-3-(2-methylbenzothiazol-5-yloxy)propyl]piperazinyl}-N-[4-(4-chlorophenoxy)phenyl]acetamide
21 | 7.6 µM | 2-{4-[(2S)-2-hydroxy-3-(2-methylbenzothiazol-5-yloxy)propyl]piperazinyl}-N-[4-(trifluoromethyl)phenyl]acetamide
22 | 0.33 µM | 2-{4-[(2S)-2-hydroxy-3-(2-methylbenzothiazol--yloxy)propyl]piperazinyl}-N-(4-phenoxyphenyl)acetamide
23 | 26 µM | 2-{4-[(2S)-2-hydroxy-3-(2-phenylbenzoxazol-5-yloxy)propyl]piperazinyl}-N-(3-phenylphenyl)acetamide
24 | 11.3 µM | 2-{4-[(2S)-2-hydroxy-3-(2-phenylbenzoxazol-5-yloxy)propyl]piperazinyl}-N-(4-phenoxyphenyl)acetamide
25 | 6.5 µM | 2-{4-[(2S)-3-(2-cyclohexylbenzothiazol-5-yloxy)-2-hydroxypropyl]piperazinyl}-N-(2,6-dimethylphenyl)acetamide
26 | 0.41 µM | 2-{(3S)-4-[(2S)-2-hydroxy-3-(2-methylbenzothiazol-5-yloxy)propyl]-3-methylpiperazinyl}-N-(4-cyanophenyl)acetamide
27 | 13 µM | Cc1cccc(C)c1NC(=O)CN1CCN(C[C@H](O)COc2ccc3oc(-c4cccc(C(F)(F)F)c4)nc3c2)CC1 [2-[4-((2S)-2-hydroxy-3-{2-[3-(trifluoromethyl)phenyl]benzoxazol-5-yloxy}propyl)piperazinyl]-N-(2,6-dimethylphenyl)acetamide]
28 | 5 µM | Cc1nc2cc(OC[C@H](O)CN3CCN(CC(=O)Nc4c(C)cccc4C)C[C@@H]3C)ccc2s1 [2-{4-[(2R)-2-hydroxy-3-(2-methylbenzothiazol-5-yloxy)propyl](3S)-3-methylpiperazinyl}-N-(2,6-dimethylphenyl)acetamide]
29 | 0.18 µM | Cc1nc2cc(OC[C@@H](O)CN3CCN(CC(=O)Nc4cccc(-c5ccccc5)c4)CC3)ccc2s1 [2-{4-[(2S)-2-hydroxy-3-(2-methylbenzothiazol-5-yloxy)propyl]piperazinyl}-N-(3-phenylphenyl)acetamide]
30 | 10 µM | Cc1nc2cc(OC[C@H](O)CN3CCN(CC(=O)Nc4c(C)cccc4C)C[C@H]3C)ccc2s1 [2-{(3R)-4-[(2R)-2-hydroxy-3-(2-methylbenzothiazol-5-yloxy)propyl]-3-methylpiperazinyl}-N-(2,6-dimethylphenyl)acetamide]
31 | 2 µM | Cc1nc2cc(OC[C@@H](O)CN3CCN(CC(=O)Nc4c(C)cccc4C)C[C@H]3C)ccc2s1 [2-{(3R)-4-[(2S)-2-hydroxy-3-(2-methylbenzothiazol-5-yloxy)propyl]-3-methylpiperazinyl}-N-(2,6-dimethylphenyl)acetamide]
32 | 0.2 µM | Cc1nc2cc(OC[C@@H](O)CN3CCN(CC(=O)Nc4c(C)cccc4C)C[C@@H]3C)ccc2s1 [2-{(3S)-4-[(2S)-2-hydroxy-3-(2-methylbenzothiazol-5-yloxy)propyl]-3-methylpiperazinyl}-N-(2,6-dimethylphenyl)acetamide]

Row | Compound | IC50
33 | Cc1nc2cc(OC[C@H](O)CN3CCN(CC(=O)Nc4c(C)cccc4C)CC3)ccc2s1 [2-{4-[(2R)-2-hydroxy-3-(2-methylbenzothiazol-5-yloxy)propyl]piperazinyl}-N-(2,6-dimethylphenyl)acetamide] | 4 µM
34 | Cc1nc2cc(OC[C@@H](O)CN3CCN(CC(=O)Nc4c(C)cccc4C)CC3)ccc2s1 [2-{4-[(2S)-2-hydroxy-3-(2-methylbenzothiazol-5-yloxy)propyl]piperazinyl}-N-(2,6-dimethylphenyl)acetamide] | 8 µM
